Test results from PMC3985856 (Biochemistry, 2014).

Molecular target: T1, BAL (benzaldehyde lyase) (Pseudomonas fluorescens, UniProt Q9F4L3)
T1 sequence (Q9F4L3 1-563): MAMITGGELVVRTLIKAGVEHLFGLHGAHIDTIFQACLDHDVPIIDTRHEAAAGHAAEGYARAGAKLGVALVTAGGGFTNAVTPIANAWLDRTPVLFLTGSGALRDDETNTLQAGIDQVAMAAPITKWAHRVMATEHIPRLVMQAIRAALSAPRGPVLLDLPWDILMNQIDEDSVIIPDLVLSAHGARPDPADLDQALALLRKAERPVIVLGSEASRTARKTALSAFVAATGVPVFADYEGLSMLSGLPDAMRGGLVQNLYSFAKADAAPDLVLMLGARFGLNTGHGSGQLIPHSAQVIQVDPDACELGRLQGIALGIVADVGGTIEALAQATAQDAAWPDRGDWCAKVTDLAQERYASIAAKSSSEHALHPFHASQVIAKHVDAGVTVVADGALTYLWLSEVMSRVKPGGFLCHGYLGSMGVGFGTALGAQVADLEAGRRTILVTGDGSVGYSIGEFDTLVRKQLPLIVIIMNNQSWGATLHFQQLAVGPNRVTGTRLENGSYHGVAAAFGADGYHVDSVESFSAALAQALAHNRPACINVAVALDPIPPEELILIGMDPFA
Experiment: CD titration, Hill fit
Assay type: binding
Conditions: pH 8.0, 50 mM Tris, 0.2 mM ThDP, 1 mM MgCl2, 30 °C; covalent adduct with ThDP

Kd: 1.1 mM
Compound: O=C(O)C(=O)/C=C/c1ccc(Cl)cc1 [CPB, (E)-4-(4-chlorophenyl)-2-oxo-3-butenoic acid]
